From patent EP0967196B1, “Substituted 2-hydroxybenzophenones, preparation thereof, their use as fungicide and their fungicidal compositions” (BASF AKTIENGESELLSCHAFT, priority 1998, dated 1999)

What was measured:
[1] = test system: Blumeria (Erysiphe) graminis DC. f.sp. tritici E. Marchal; assay: Wheat Powdery Mildew (WPM) residual fungicidal activity, inoculation 4 or 5 days after spray application on wheat plants; format: in vivo; conditions: for Emax at 0.2 ppm / Emax at 1 ppm / Emax at 5 ppm / Emax at 25 ppm / Emax at 125 ppm: Blumeria, WPM 4/5 da R (4/5 day residual), wheat variety Kanzler, read-out: Disease control (% efficacy); for Emax at 0.2 ppm: rate 0.2 ppm; for Emax at 125 ppm: rate 125 ppm; for WPM 4 day residual % disease control: Comparison test (Table IV), 200 l/ha
Source text: (§1) • Wheat Powdery Mildew (WPM): • HOST: Wheat (Triticum aestivum L.) variety Kanzler • PATHOGEN: Blumeria (Erysiphe) graminis DC. f.sp. tritici E. Marchal
(§2) • 1. Wheat seed (approximately 8-10/pot) is planted in 6 cm diameter plastic pots and maintained in the greenhouse. • 2. When the primary leaf (wheat) is fully expanded, formulated test compounds are sprayed with a single nozzle overhead track sprayer at a rate of 200 l/ha. Plants are then allowed to air-dry. • 3. Inoculation precedes treatment by 3 days in the case of curative evaluations and follows treatment by 4 or 5 days in case of residual evaluations. For inoculation, plants are set up on greenhouse benches with bottom watering mats and inoculated by dusting them with conidia from powdery mildew infected plants (stock cultures at an age of 10-14 days). Between inoculation and treatment for curative evaluations and between treatment and inoculation for residual evaluations, plants are maintained in the greenhouse with bottom watering. • 4. Disease on the primary leaf as percent leaf area with disease symptoms/signs is evaluated about 7 days after inoculation. In the case of wheat, the tips and bases of the leaves are excluded from the evaluation.
(§3) Percent disease control is then calculated by the following formula: % disease control = 100 -(% infection in treated plants)/(% infection in untreated plants)x 100 [formula]
(§4) • 1. Technical compounds are formulated in a solvent/surfactant system consisting of 5% acetone and 0.05% Tween 20 in deionized water. Compounds are dissolved in acetone prior to addition of the water; the Tween 20 can be added through either the acetone or the water. Dilutions are made using the solvent/surfactant system. Formulated compounds are prepared using deionized water. • 2. Two kinds of controls are included: • Plants treated with the solvent/surfactant solution and inoculated (Solvent Blank). • Untreated plants which are inoculated (Inoculated Control).
4/5 da R = 4/5 day residual Inoculation 4 or 5 days AFTER application
(§5) The fungicidal activity against wheat powdery mildew of the hydroxybenzophenones according to this invention has been compared with a fungicidal benzophenone known from EP 0 727 141 in the following table. Compounds applied to seedling wheat plants using a single-nozzle overhead track sprayer at an application rate of 200 l/ha.

[2] = test system: Blumeria (Erysiphe) graminis DC. f.sp. tritici E. Marchal; assay: Wheat Powdery Mildew (WPM) curative fungicidal activity, inoculation 3 days before spray application on wheat plants; format: in vivo; design: key to WPM 3 day curative Antisporulation effect: +++ = complete (no spore release); ++ = moderate; + = slight; o = none; conditions: for Emax at 0.2 ppm / Emax at 1 ppm / Emax at 5 ppm / Emax at 25 ppm / Emax at 125 ppm: Blumeria, 72 h, WPM 3 da C (3 day curative), wheat variety Kanzler, read-out: Disease control (% efficacy); for Emax at 0.2 ppm: rate 0.2 ppm; for Emax at 125 ppm: rate 125 ppm; for WPM 3 day curative % disease control / WPM 3 day curative Antisporulation effect: Comparison test (Table IV), 200 l/ha
Source text: as §1, §2, §3, §4, §5

SMILES | Emax at 0.2 ppm [1] | Emax at 1 ppm ([1]; rate 1 ppm) | Emax at 5 ppm ([1]; rate 5 ppm) | Emax at 25 ppm ([1]; rate 25 ppm) | Emax at 125 ppm [1] | Emax at 0.2 ppm [2] | Emax at 1 ppm ([2]; rate 1 ppm) | Emax at 5 ppm ([2]; rate 5 ppm) | Emax at 25 ppm ([2]; rate 25 ppm) | Emax at 125 ppm [2] | WPM 4 day residual % disease control ([1]; rate 1 ppm) | WPM 4 day residual % disease control ([1]; rate 5 ppm) | WPM 4 day residual % disease control ([1]; rate 25 ppm) | WPM 3 day curative % disease control ([2]; rate 1 ppm) | WPM 3 day curative Antisporulation effect ([2]; rate 1 ppm) | WPM 3 day curative % disease control ([2]; rate 5 ppm) | WPM 3 day curative Antisporulation effect ([2]; rate 5 ppm) | WPM 3 day curative % disease control ([2]; rate 25 ppm) | WPM 3 day curative Antisporulation effect ([2]; rate 25 ppm)
COc1cc(C)c(C(=O)c2c(OC(C)=O)ccc(Br)c2C)c(OC)c1OC [Example 1, 2-acetoxy-5-bromo-6,6'-dimethyl-2',3',4'-trimethoxybenzophenone] | 53% | 84% | 98% | 100% | 100% | 2% | 17% | 33% | 49% | 55% | – | – | – | – | – | – | – | – | –
COc1cc(C)c(C(=O)c2c(O)ccc(Br)c2C)c(OC)c1OC [Example 2, 5-bromo-6,6'-dimethyl-2-hydroxy-2',3',4'-trimethoxybenzophenone] | 86% | 98% | 100% | 100% | 100% | 13% | 23% | 37% | 53% | 59% | 52% | 78% | 100% | 10% | + | 22% | + | 40% | +++
CCCCOc1c(OC)c(OC)cc(C)c1C(=O)c1c(Cl)cccc1Cl [standard, 2'-n-butyloxy-2,6-dichloro-3',4'-dimethoxy-6'-methylbenzophenone, reference compound] | – | – | – | – | – | – | – | – | – | – | 15% | 47% | 92% | 0% | 0 | 3% | 0 | 6% | +
